The subject of assay [1] is human limbal stem cells (LSCs). Put plainly: Human limbal stem cell population expansion: expansion factor. It is filed as cell-based. To be noted: 10 micromolar, XVIVO15 medium, two passages, ratio of expanded to seeded cells. On the procedure:
Cells were cultured at 37° C. in 5% CO2.
For each compound, two sets of cultures were generated. A first set of cultures was fixed in 4% PFA for 20 minutes at room temperature after cells isolated from the cornea had attached to the cell culture dish (typically 24 h after cell plating). A second set of cultures was fixed in 4% PFA for 20 minutes at room temperature after being cultured for two passages. Cells were passaged when they reached 90-100% confluence.
To evaluate cell expansion ratios, nuclei were counted using a Zeiss LSM 880 confocal microscope. The expansion factor was then determined by calculating the ratio of the expanded population of cells to population of seeded cells.

Assay [2] has as its system Phospho-YAP (Ser127) in JHH-5 cells. The assay can be described thus: pYAP HTRF Assay (JHH-5 cells). It is filed as cell-based. To be noted: 2 hours. The gist of the method:
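JHH-5 cells (24000/well) cultured 24 h at 37 °C in William's E with 10% FBS, then exposed to compounds for 2 h at 37 °C. After lysis, pYAP d2/cryptate antibodies incubated 18 h at room temperature; HTRF ratio 665/620 nm ×10000.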
A general note: Time-resolved FRET reads energy transfer from a long-lived donor to a nearby acceptor.

Assay [3] relates to human limbal stem cells (LSCs). The assay can be described thus: Human limbal stem cell population expansion, immunohistochemical observation of p63alpha. It is filed as cell-based. The conditions noted are these: for LSC colony formation and p63alpha expression: 10 micromolar, 6 days without passaging. On the procedure: Cells obtained as described in Example B1 were plated in 24-well plates (Corning) in limbal epithelium cell culture medium (DMEM F12 supplemented with 10% human serum and 1.3 mM calcium chloride) supplemented with LATS inhibitor compound example no. […] Cells were first cultured at 37° C. in 5% CO2 for 6 days after isolation without passaging (FIGS. 2A, 2B and 2C).
To evaluate the ability of the compounds to enable LSC expansion after two passages, LSCs were passaged and cultured for two weeks in the presence of compound example 49 to enable expansion (FIG. 2D). Limbal stem cells (LSCs) were passaged by treating cultures with Accutase for 10 minutes at 37° C., rinsing the cell suspension by centrifugation and plating cells in fresh LSC culture medium supplemented with LATS inhibitor compound example 49.
In order to observe that the expanded cell population expressed p63alpha, this was measured by immunohistochemistry as follows. Cell cultures were fixed with 4% PFA for 20 minutes, permeabilized and blocked in a blocking solution of 0.3% Triton X-100 (Sigma-Aldrich) and 3% donkey serum in PBS for 30 minutes. Cells were then labeled with primary antibody in the blocking solution for 12 hours at 4° C. Primary antibody used was p63alpha from Cell Signalling. Samples were washed in PBS three times and donkey-raised secondary antibody Alexa Fluor 488 (Molecular Probes) at 1:500 dilution were applied for 30 minutes at room temperature. Cells were counter-stained with a human nuclear antigen antibody (Millipore) at a 1:500 dilution in order to label all cells in the culture and confirm their human identity. […] Fluorescence was observed using a Zeiss LSM 880 confocal microscope.

The test system of assay [4] is Corneal Endothelial Cells (CECs). Put plainly: CEC proliferation, Incucyte confluence by real-time live-cell analysis. It is filed as cell-based, human. The conditions noted are these: vs vehicle DMSO. The text has this:
FIG. 16: CECs grown in presence or absence of LATS inhibitors. An Incucyte system (Essen Biosciences) was used to measure CEC confluence by real-time quantitative live-cell analysis over a time course. Compound ex. 49 (black squares) and ex.
(§1) If it is desired to measure the cell number or expansion of the cell population, this may be done for example by taking an aliquot and performing immunocytochemistry (e.g. to count nuclei stained with Sytox Orange) or by live cell imaging under brightfield microscope to count the number of cells or by performing real-time quantitative live-cell analysis of cell confluence at various time points during the cell population expansion phase of the method according to the invention.

Assay [5] has as its system YAP phosphorylation in limbal stem cells (LSCs). Put plainly: YAP dephosphorylation in LSCs by Western blot. The format is cell-based, human. The conditions noted are these: within one hour of treatment.
The subject of a further assay is limbal stem cells (LSCs). The assay can be described thus: LSC population expansion, p63-alpha immunolabelling and cell count. To be noted: for LSC colony formation and p63alpha expression: up to 6 days in culture, vs growth medium and DMSO. The format is cell-based, human.
From the text: FIG. 2A: In the presence of growth medium and DMSO, only a few isolated cells attach to the culture dish and survive up to 6 days. Most cells expressed the human nuclear marker, but few expressed p63alpha. FIGS. 2B and 2C: In contrast, in the presence of LATS inhibitors: compound example no. 49 and example no. […] FIG. 2D: Passaging cells and culturing them in the presence of LATS inhibitor compound example no.
as §1
The Sytox Orange assay may be performed according to standard protocols known in the art. In brief, after cells have attached to the cell culture dish (typically 24 h after cell plating), the cells are fixed in paraformaldehyde. The cells are then permeabilized (e.g. using a solution of 0.3% Triton X-100) and they are then labeled in a solution of Sytox Orange (e.g. using 0.5 micromolar of Sytox Orange in PBS). The number of nuclei stained with Sytox Orange per surface area are then counted under a Zeiss epifluorescence microscope.
(2) The cell preparation comprises more than 6% p63alpha positive cells. Preferably the cell preparation comprises more than 10%, 20%, 30%, 40%, 50%, 60%, 70%, 80% or 90% p63alpha positive cells. In a preferred embodiment the cell preparation comprises more than 95% p63alpha positive cells. The percentage of p63alpha cells may be measured by immunohistochemistry or FACS.

Take `CCCNc1nc(-c2ccncc2)nc2cnccc12` [Example 14, N-propyl-2-(pyridin-4-yl)pyrido[3,4-d]pyrimidin-4-amine]: in assay [1], the Expansion factor worked out at 1423. The compound also gave an IC50 in assay [2] of more than 10000 nM.

Take `CC(C)(O)CC(C)(C)Nc1nc(-c2ccncc2)nc2cnccc12` [Example 49, 2,4-dimethyl-4-{[2-(pyridin-4-yl)pyrido[3,4-d]pyrimidin-4-yl]amino}pentan-2-ol]: the “LSC colony formation and p63alpha expression” value is “the cells formed colonies and expressed p63alpha” in assay [3]; “formed colonies and expressed p63alpha” in the assay on limbal stem cells (LSCs). Besides, the “LSC population expansion after passaging” value in assay [3] (passaged and cultured two weeks) was “enabled cell population expansion and the formation of confluent cultures expressing p63alpha”; in the assay with limbal stem cells (LSCs) (passaged cells cultured for two weeks), “enabled cell population expansion and the formation of confluent cultures expressing p63alpha”. Moreover, the Expansion factor in assay [1] is reported as 2029. This compound registered an IC50 in assay [2] of 1600 nM. Further, the “CEC proliferation (confluence over time)” value in assay [4] is recorded as “induced strong CEC proliferation”. For the same compound, the “YAP dephosphorylation in LSCs” value in assay [5] is reported as “induce YAP dephosphorylation”.

In the case of `c1cc(-c2nc(NC3CCCC3)c3ccncc3n2)ccn1` [Example 65, N-cyclopentyl-2-(pyridin-4-yl)pyrido[3,4-d]pyrimidin-4-amine], the Expansion factor in assay [1] was 1048. In assay [2], this compound returned an IC50 of 5800 nM.

Regarding `Cc1n[nH]cc1-c1nc(NC2(C)CC2)c2ccncc2n1` [Example 133, 2-(3-methyl-1H-pyrazol-4-yl)-N-(1-methylcyclopropyl)pyrido[3,4-d]pyrimidin-4-amine], the “LSC colony formation and p63alpha expression” value in assay [3] was “the cells formed colonies and expressed p63alpha”; with limbal stem cells (LSCs), “formed colonies and expressed p63alpha”. The Expansion factor in assay [1] turned out to be 1205. The compound further displayed an IC50 in assay [2] of 1700 nM. Also, the “CEC proliferation (confluence over time)” value in assay [4] is “induced strong CEC proliferation”. In addition, in assay [5], the “YAP dephosphorylation in LSCs” value is “induce YAP dephosphorylation”.

Take `CC(C)(C)Nc1cc(-c2ccncc2)nc2cnccc12` [Example 261, N-(tert-butyl)-2-(pyridin-4-yl)-1,7-naphthyridin-4-amine]: the Expansion factor in assay [1] is 1717. The compound also displayed an IC50 in assay [2] of 600 nM.

The IC50 is the point on the concentration scale where inhibition reaches its midpoint. Lower therefore signals greater potency.

The record behind these values is patent US11458138B2 (Novartis AG, priority 2017, dated 2022).
